According to ChEMBL document CHEMBL3638847, “Substituted piperidine compounds and their use as orexin receptor modulators” (2015):

Legend:
[1] = target: T1, Orexin/Hypocretin receptor type 1 (Homo sapiens, UniProt O43613); test: (§1) Radioligand Binding Assay: Human Embryonic Kidney 293 cells (HEK293) stably expressing rat orexin 1 receptor(Genebank accession number NM_001525) or […] (CHO) stably expressing human orexin 1 receptor (Genebank accession number […]) were grown to confluency in DMEM (Hyclone, cat # SH30022), 10% FBS, IX Pen/Strep, IX sodium pyruvate, 10 mM HEPES, 600 ug/mL G418 and DMEM/F12 (Gibco, Cat #1 1039), 10%FBS, IX Pen/Strep, 600 ug/mL G418 media, respectively on 150 cm2 tissue culture plates, washed with 5 mM EDTA in PBS (HyClone Dulbecco's Phoshpate Buffered Saline IX with Calcium and Magnesium, Cat # SH30264.01, hereafter referred to simply as PBS) and scraped into 50 ml tubes. After centrifugation (2K xG, 5 min at 4 C), the supernatant was aspirated and the pellets frozen and stored at -80C. Cells were resuspended in PBS in the presence of 1 tablet of protease inhibitor cocktail (Roche, Cat. #1 1836145001) per 50 mL. Each cell pellet from a 15 cm plate was resuspended in 10 mL.; format: cell-based
T1 sequence (O43613 whole entry): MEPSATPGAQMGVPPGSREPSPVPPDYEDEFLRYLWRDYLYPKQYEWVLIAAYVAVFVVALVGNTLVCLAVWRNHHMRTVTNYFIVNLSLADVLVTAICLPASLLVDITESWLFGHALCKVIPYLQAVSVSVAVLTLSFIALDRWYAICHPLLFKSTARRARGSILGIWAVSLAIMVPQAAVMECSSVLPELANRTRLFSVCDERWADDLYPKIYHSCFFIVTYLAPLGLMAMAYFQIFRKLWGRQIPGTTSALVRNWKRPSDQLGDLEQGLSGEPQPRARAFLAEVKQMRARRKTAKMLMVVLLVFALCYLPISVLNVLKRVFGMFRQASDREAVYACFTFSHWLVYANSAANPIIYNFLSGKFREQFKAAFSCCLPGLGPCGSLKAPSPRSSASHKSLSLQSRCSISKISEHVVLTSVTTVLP

[2] = target: T2, Orexin/Hypocretin receptor type 1 (Rattus norvegicus, UniProt P56718); test: as §1; format: cell-based
T2 sequence (P56718 whole entry): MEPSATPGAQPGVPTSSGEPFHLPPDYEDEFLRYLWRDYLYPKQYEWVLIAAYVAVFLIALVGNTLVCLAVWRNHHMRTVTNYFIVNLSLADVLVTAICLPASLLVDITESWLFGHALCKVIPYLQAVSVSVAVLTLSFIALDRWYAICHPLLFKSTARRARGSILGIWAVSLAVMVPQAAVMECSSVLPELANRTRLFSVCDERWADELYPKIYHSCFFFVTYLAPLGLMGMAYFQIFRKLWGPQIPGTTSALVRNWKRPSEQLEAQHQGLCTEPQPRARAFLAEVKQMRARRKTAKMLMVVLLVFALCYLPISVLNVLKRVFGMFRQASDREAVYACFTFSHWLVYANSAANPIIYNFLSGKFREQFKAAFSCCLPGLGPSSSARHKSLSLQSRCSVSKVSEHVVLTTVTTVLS

Orexin receptor type 2 = target: T3, Orexin receptor type 2 (Homo sapiens, UniProt O43614); test: Radioligand Binding Assay: HEK293 stably expressing human orexin 2 receptor (Genebank accession numberNM_001526) were grown to confluency in DMEM (Hyclone, cat # SH30022) , 10%FBS, IX Pen/Strep, IX NaPyruvate, 10 mM HEPES, 600 ug/ml G418 media on 150 cm2 tissue culture plates, washed with 5 mM EDTA in PBS (HyClone Dulbecco's Phoshpate Buffered Saline IX with Calcium and Magnesium, Cat # SH30264.01, hereafter referred to simply as PBS) and scraped into 50 ml tubes. After centrifugation (2K xG, 5 min at 4°C), the supernatant was aspirated and the pellets frozen and stored at -80°C. Cells were resuspended in PBS in the presence of 1 tablet of protease inhibitor cocktail (Roche, Cat. #11836145001) per 50 mL. Each cell pellet from a 15 cm plate was resuspended in 10 mL, stored on ice, and homogenized for 45 sec just prior to addition to the reactions. Competition binding experiments in 96 well polypropylene plates were performed using [3H]-EMPA (Moraveck Corporation, specific activity = 29.6 Ci/mmol).
T3 sequence (O43614 whole entry): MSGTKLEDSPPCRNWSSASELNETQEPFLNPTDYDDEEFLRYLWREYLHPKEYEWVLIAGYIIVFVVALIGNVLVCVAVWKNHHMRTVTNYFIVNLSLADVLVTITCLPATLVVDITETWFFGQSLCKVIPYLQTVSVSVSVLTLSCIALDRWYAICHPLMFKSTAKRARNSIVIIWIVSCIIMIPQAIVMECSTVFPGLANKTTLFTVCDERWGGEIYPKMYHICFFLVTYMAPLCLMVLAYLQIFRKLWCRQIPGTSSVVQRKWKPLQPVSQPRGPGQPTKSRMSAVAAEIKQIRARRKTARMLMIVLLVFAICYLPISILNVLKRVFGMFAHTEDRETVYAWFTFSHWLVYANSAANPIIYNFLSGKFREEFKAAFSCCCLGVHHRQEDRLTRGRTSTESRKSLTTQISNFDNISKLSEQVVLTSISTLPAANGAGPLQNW

Ki [1]: 26 nM
Ki [2]: 19 nM
Ki (Orexin receptor type 2): 91 nM
SMILES: Cc1cnc(C(=O)N2CCC[C@@H](Nc3ccc(C(F)(F)F)cn3)[C@@H]2C)c(-c2ncccn2)c1
